The subject of assay [1] is HCV 1a-H77 subgenomic replicon. Kind of assay: microbe, parasite or virus in culture. It is filed as cell-based, HCV genotype 1a. To be noted: Hepatitis C virus, stable replicon.
The target in assay [2] is T1, HCV NS5B polymerase 1b BK strain (Hepatitis C virus genotype 1b, UniProt P26663).
T1 construct: six-histidine tag; made in house; host or cells: E. coli
Kind of assay: HCV NS5B polymerase enzymatic inhibition assay, strain 1b BK. It is filed as biochemical. To be noted: enzyme, strain 1b BK; read-out: HCV Polymerase Strain 1b BK IC50. The protocol: (§1) Purified HCV NS5B polymerase enzymes were used for polymerase inhibition assays. All recombinant HCV polymerases contained the first 570 amino acids of the 591 amino acid native protein sequence and a six-histidine tag at the N-terminus or C-terminus to facilitate purification by affinity chromatography. The DNA nucleotide sequence for the HCV polymerase 1b BK strain was codon optimized for expression in E. coli. A synthetic gene was prepared from a series of overlapping oligonucleotides that were filled in using a DNA polymerase and amplified by PCR. The patient isolate HCV polymerases were cloned by RT-PCR methods using HCV RNA extracted from the serum of infected subjects obtained from ProMedDx and BioCollections (genotypes 2a, 2b, 3a, and 4a). Laboratory strains were cloned from plasmid DNA (1a-H77 or 1a-H77-C316Y) or from existing replicon cells (1b Rice). In all cases the amplified DNA was cloned into a protein expression vector (typically a pET vector from Novagen) and then multiple clones were sequenced to identify one whose NS5B sequence agreed with the population sequence. This sequence-confirmed clone was then transfected into E. coli for protein expression and purification. E. coli cultures were grown to a maximum optical density (OD) of 2-3 and then induced with 0.4 mM isopropyl beta-D-thiogalactopyranoside (IPTG) and grown for 20 hours at 20° C.
(§2) Proteins were purified using nickel affinity chromatography, and additional column steps were added including, ion exchange, size exclusion, hydrophobic ion, and poly-U affinity chromatography, as needed, depending on the sample being purified. The template RNA used in the polymerase enzymatic assay was a 2.1 kb construct that corresponds to the 3′-end of an HCV genotype 1b negative strand RNA.
(§3) The reaction was initiated by the addition of 20 μM CTP, 20 μM ATP, 0.284 μM (0.5 μCi) of 5,6-[^3H] UTP, 5 nM template RNA and 0.1 U/μL RNase inhibitor (RNasin, Promega), and allowed to proceed for three hours at 30° C. The final reaction volume was 50 μL. The reaction was terminated by the addition of 50 uL of 4 mM spermine in 10 mM Tris-HCl, pH 7.5, 1 mM EDTA. The quenched reaction was allowed to incubate for at least 15 minutes at room temperature, and then the precipitated RNA was captured by filtration through a glass fiber filter (GF/B, Millipore) in a 96 well format. The filter plate was washed five times with 200 μL of 2 mM spermine, 10 mM Tris-HCl, pH 8.0, 1 mM EDTA, and two times with ethanol. After drying thoroughly in air, 30 μL of Microscint-20 scintillation cocktail (Perkin Elmer) was added to each well, and the retained cpm were determined by scintillation counting. IC50 values were determined by nonlinear regression.
(§4) % Inhibition=100*[[I]/([I]+[IC50])] equation 1
(§5) V=kcat[S]/2(Km+[S])*(sqrt((IC50+I−E)̂2+(4*IC50*E))−(IC50+I−E)) equation 2

Assay [3] has as its system HCV NS5B polymerase 1a-H77-C316Y. The experiment in a line: biochemical. More on the design: species or system HCV genotype 1a. To be noted: ratio of enzyme IC50s, 1a H77-C316Y / 1a H77. As to the method: as §1, §2, §3, §4, §5
The target of assay [4] is T2, HCV NS5B polymerase 1a-H77 (Hepatitis C virus genotype 1a, UniProt P27958).
T2 construct: six-histidine tag; made in house; host or cells: E. coli
The experiment in a line: biochemical. More on the design: species or system HCV genotype 1a. To be noted: enzyme, strain 1a H77; read-out: HCV Polymerase Strain 1a H77 IC50. As to the method: as §1, §2, §3, §4, §5

Assay [5] concerns the target T3, HCV NS5B polymerase 1a-H77-C316Y (Hepatitis C virus genotype 1a, UniProt P27958, C2736Y).
T3 construct: six-histidine tag; made in house; host or cells: E. coli
The experiment in a line: biochemical. Set-up: species or system HCV genotype 1a. The protocol: as §1, §2, §3, §4, §5

Assay [6] relates to HCV 1b-BB7 subgenomic replicon. Kind of assay: microbe, parasite or virus in culture. It is filed as cell-based, HCV genotype 1b. To be noted: Hepatitis C virus, stable replicon. For orientation: A replicon is a self-replicating genome or part of one, used to study replication in cells.
Setting [7] is: 5% FBS, absence of human plasma, read-out: Stable Replicon 1a H77 5% FBS EC50.
Setting [8] is: strain 1a H77, 5% FBS + 40% human plasma, read-out: 1a H77 5% FBS + 40% Human Plasma EC50.
Where [9] appears, read: strain 1a H77, 5% FBS, no human plasma, read-out: 1a H77 5% FBS EC50.
Where [10] appears, read: strain 1a H77, 5% FBS, read-out: 1a H77 5% FBS EC50.
The mark [11] stands for this setting: strain 1b BB7, 5% FBS + 40% human plasma, read-out: 1b BB7 5% FBS + 40% Human Plasma EC50.
Where [12] appears, read: strain 1b BB7, 5% FBS, no human plasma, read-out: 1b BB7 5% FBS EC50.
[13] abbreviates: strain 1b BB7, 5% FBS, read-out: 1b BB7 5% FBS EC50.

SMILES strings stand for the structures. Read-outs that look alike come from different tables or passages of the source.

T2 sequence (P27958 2421-2990): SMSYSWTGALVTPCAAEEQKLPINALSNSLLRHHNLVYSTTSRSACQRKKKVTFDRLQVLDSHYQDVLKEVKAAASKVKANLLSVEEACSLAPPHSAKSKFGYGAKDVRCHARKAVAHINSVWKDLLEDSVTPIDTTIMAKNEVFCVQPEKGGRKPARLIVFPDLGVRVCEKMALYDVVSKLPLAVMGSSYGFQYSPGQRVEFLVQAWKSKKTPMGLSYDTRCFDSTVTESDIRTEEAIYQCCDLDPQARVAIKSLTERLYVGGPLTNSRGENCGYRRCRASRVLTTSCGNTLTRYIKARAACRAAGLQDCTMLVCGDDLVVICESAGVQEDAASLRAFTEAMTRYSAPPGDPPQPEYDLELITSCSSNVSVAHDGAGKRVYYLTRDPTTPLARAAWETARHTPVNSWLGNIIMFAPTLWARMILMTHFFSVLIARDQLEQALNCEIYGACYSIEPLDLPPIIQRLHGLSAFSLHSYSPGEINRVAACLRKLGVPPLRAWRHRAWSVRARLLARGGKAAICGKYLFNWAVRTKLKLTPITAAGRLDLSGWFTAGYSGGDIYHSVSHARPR
T3 sequence (P27958 2421-2990 C2736Y): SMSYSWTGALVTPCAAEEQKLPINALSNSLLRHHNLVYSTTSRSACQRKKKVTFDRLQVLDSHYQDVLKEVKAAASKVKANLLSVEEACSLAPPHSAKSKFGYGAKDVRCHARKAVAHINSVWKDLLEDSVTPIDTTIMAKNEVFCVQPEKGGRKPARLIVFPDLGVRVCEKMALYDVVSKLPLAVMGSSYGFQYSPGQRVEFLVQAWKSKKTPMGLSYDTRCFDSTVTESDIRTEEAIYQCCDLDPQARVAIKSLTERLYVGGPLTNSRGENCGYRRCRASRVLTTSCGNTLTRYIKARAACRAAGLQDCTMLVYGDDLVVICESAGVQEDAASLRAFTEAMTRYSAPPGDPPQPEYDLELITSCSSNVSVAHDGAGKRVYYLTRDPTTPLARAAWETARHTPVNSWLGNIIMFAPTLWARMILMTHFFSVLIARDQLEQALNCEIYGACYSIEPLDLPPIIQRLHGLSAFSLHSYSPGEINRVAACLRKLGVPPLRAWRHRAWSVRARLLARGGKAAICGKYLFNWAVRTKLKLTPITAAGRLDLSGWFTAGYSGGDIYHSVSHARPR
T1 sequence (P26663 2420-2989): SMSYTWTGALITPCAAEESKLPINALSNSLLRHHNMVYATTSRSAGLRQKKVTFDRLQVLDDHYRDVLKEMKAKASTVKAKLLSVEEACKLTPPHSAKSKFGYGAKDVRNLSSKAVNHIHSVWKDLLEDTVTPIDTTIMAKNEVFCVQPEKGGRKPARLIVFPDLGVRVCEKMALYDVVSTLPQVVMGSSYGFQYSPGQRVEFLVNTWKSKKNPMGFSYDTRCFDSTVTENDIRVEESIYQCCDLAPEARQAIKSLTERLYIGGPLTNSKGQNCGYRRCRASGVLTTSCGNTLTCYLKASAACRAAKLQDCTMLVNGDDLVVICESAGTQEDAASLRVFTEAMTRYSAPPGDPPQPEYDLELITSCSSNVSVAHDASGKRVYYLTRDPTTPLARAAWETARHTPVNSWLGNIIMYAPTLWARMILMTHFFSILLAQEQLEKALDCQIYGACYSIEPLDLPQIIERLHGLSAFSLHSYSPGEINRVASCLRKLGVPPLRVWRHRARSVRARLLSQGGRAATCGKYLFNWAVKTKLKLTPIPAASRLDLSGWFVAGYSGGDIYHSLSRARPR

For the compound `CS(=O)(=O)N(CCc1ccccc1)c1cc2oc(-c3ccc(F)cc3)c(-c3ncc[nH]3)c2cc1C1CC1` [Example 35, N-[5-cyclopropyl-2-(4-fluorophenyl)-3-(1H-imidazol-2-yl)-1-benzofuran-6-yl]-N-(2-phenylethyl)methanesulfonamide], the EC50 (commonly the concentration giving half of the maximal effect) in assay [1] (setting [7]) is 102 nM; in assay [1] (setting [8]), 1580 nM; in assay [1] (setting [9]) it was 102 nM; in assay [1] (setting [10]), 102 nM; in assay [6] (setting [11]), 1130 nM; in assay [6] (setting [12]) it was 51 nM. Also, the EC50 in assay [6] (setting [13]) stood at 51 nM. For the same compound, the IC50 (commonly the midpoint of a concentration-inhibition curve) is 7 nM in assay [2], 4.9 nM in assay [4] and 113 nM in assay [5]. Moreover, the “C316Y/1a Fold Resistance” value in assay [3] is recorded as 23 fold.
As to `CS(=O)(=O)N(CC(N)=O)c1cc2oc(-c3ccc(F)cc3)c(-c3ncc[nH]3)c2cc1C1CC1` [Example 36, N^2-[5-cyclopropyl-2-(4-fluorophenyl)-3-(1H-imidazol-2-yl)-1-benzofuran-6-yl]-N^2-(methylsulfonyl)glycinamide], the EC50 was determined as 301 nM in assay [1] (setting [7]); 2140 nM in assay [1] (setting [8]); 301 nM in assay [1] (setting [9]); 301 nM in assay [1] (setting [10]); 1120 nM in assay [6] (setting [11]); 180 nM in assay [6] (setting [12]). Further, in assay [6] (setting [13]), the EC50 was determined as 180 nM. For the same compound, the IC50 in assay [2] came to 188 nM; in assay [4], 7.9 nM; in assay [5], 3400 nM. For the same compound, the “C316Y/1a Fold Resistance” value in assay [3] stood at 428 fold.
As to `CC(C)CCCN(c1cc2oc(-c3ccc(F)cc3)c(-c3ncc[nH]3)c2cc1C1CC1)S(C)(=O)=O` [Example 40, N-[5-cyclopropyl-2-(4-fluorophenyl)-3-(1H-imidazol-2-yl)-1-benzofuran-6-yl]-N-(4-methylpentyl)methanesulfonamide], the EC50 in assay [1] (setting [7]) is 23 nM; in assay [1] (setting [8]) it was 525 nM; in assay [1] (setting [9]), 23 nM; in assay [1] (setting [10]), 23 nM; in assay [6] (setting [11]) it was 445 nM; in assay [6] (setting [12]), 23 nM. In addition, the EC50 in assay [6] (setting [13]) was found to be 23 nM. Besides, the IC50 in assay [2] amounted to 19 nM; in assay [4] it was 6.5 nM; in assay [5], 70 nM. Besides, in assay [3], the “C316Y/1a Fold Resistance” value turned out to be 11 fold.
For `CS(=O)(=O)N(CCCc1ccccc1)c1cc2oc(-c3ccc(F)cc3)c(-c3ncc[nH]3)c2cc1C1CC1` [Example 41, N-[5-cyclopropyl-2-(4-fluorophenyl)-3-(1H-imidazol-2-yl)-1-benzofuran-6-yl]-N-(3-phenylpropyl)methanesulfonamide], the EC50 worked out at 73 nM in assay [1] (setting [7]); 911 nM in assay [1] (setting [8]); 73 nM in assay [1] (setting [9]); 73 nM in assay [1] (setting [10]); 364 nM in assay [6] (setting [11]); 40 nM in assay [6] (setting [12]). The EC50 in assay [6] (setting [13]) was determined as 40 nM. Moreover, the IC50 in assay [2] was determined as 16 nM; in assay [4] it was 5 nM; in assay [5] it was 58 nM. The “C316Y/1a Fold Resistance” value in assay [3] was found to be 12 fold.
On to `CS(=O)(=O)N(CCOc1ccccc1)c1cc2oc(-c3ccc(F)cc3)c(-c3ncc[nH]3)c2cc1C1CC1` [Example 43, N-[5-cyclopropyl-2-(4-fluorophenyl)-3-(1H-imidazol-2-yl)-1-benzofuran-6-yl]-N-(2-phenoxyethyl)methanesulfonamide], for which the EC50 in assay [1] (setting [7]) amounted to 269 nM; in assay [1] (setting [8]) it was 5210 nM; in assay [1] (setting [9]), 269 nM; in assay [1] (setting [10]) it was 269 nM; in assay [6] (setting [11]), 616 nM; in assay [6] (setting [12]), 80 nM. In addition, the EC50 in assay [6] (setting [13]) stood at 80 nM. Further, the figures for the IC50 in assay [2], in assay [4] and in assay [5] were 25 nM, 6.5 nM and 1000 nM, respectively. Besides, the “C316Y/1a Fold Resistance” value in assay [3] came out at 154 fold.
Regarding `CS(=O)(=O)N(CC1CCCCC1)c1cc2oc(-c3ccc(F)cc3)c(-c3ncc[nH]3)c2cc1C1CC1` [Example 45, N-(cyclohexylmethyl)-N-[5-cyclopropyl-2-(4-fluorophenyl)-3-(1H-imidazol-2-yl)-1-benzofuran-6-yl]methanesulfonamide], the EC50 in assay [1] (setting [7]) was 87.4 nM; in assay [1] (setting [8]) it was 3010 nM; in assay [1] (setting [9]) it was 87.4 nM; in assay [1] (setting [10]), 87.4 nM; in assay [6] (setting [11]), 4410 nM; in assay [6] (setting [12]) it was 180 nM. Also, in assay [6] (setting [13]), the EC50 turned out to be 180 nM. Also, the IC50 in assay [2] was 110 nM; in assay [4], 7.5 nM; in assay [5] it was 295 nM. Also, the “C316Y/1a Fold Resistance” value in assay [3] amounted to 39 fold.
For the compound `COCCN(c1cc2oc(-c3ccc(F)cc3)c(-c3ncc[nH]3)c2cc1C1CC1)S(C)(=O)=O` [Example 47, N-[5-cyclopropyl-2-(4-fluorophenyl)-3-(1H-imidazol-2-yl)-1-benzofuran-6-yl]-N-(2-methoxyethyl)methanesulfonamide], the EC50 was determined as 81.7 nM in assay [1] (setting [7]); 771 nM in assay [1] (setting [8]); 81.7 nM in assay [1] (setting [9]); 81.7 nM in assay [1] (setting [10]); 148 nM in assay [6] (setting [11]); 25.6 nM in assay [6] (setting [12]). In addition, the EC50 in assay [6] (setting [13]) stood at 25.6 nM. The IC50 in assay [2] is 41 nM; in assay [4], 7.9 nM; in assay [5] it was 1000 nM. Also, the “C316Y/1a Fold Resistance” value in assay [3] amounted to 126 fold.
Turning to `CS(=O)(=O)N(CC1CCNC1)c1cc2oc(-c3ccc(F)cc3)c(-c3ncc[nH]3)c2cc1C1CC1` (stereo not drawn) [Example 51, N-[5-cyclopropyl-2-(4-fluorophenyl)-3-(1H-imidazol-2-yl)-1-benzofuran-6-yl]-N-(pyrrolidin-3-ylmethyl)methanesulfonamide], the EC50 in assay [1] (setting [7]) stood at 1000 nM; in assay [1] (setting [8]), 4590 nM; in assay [1] (setting [9]), 1000 nM; in assay [1] (setting [10]) it was 1000 nM; in assay [6] (setting [11]), 835 nM; in assay [6] (setting [12]) it was 194 nM. Also, in assay [6] (setting [13]), the EC50 stood at 194 nM. In addition, the IC50 in assay [2] amounted to 74 nM; in assay [4] it was 9.4 nM; in assay [5] it was 2050 nM. In addition, the “C316Y/1a Fold Resistance” value in assay [3] turned out to be 219 fold.
On to `CC(C)N(c1cc2oc(-c3ccc(F)cc3)c(-c3ncc[nH]3)c2cc1C1CC1)S(C)(=O)=O` [Example 52, N-[5-cyclopropyl-2-(4-fluorophenyl)-3-(1H-imidazol-2-yl)-1-benzofuran-6-yl]-N-isopropylmethanesulfonamide], for which the EC50 was 130 nM in assay [1] (setting [7]); 1410 nM in assay [1] (setting [8]); 130 nM in assay [1] (setting [9]); 130 nM in assay [1] (setting [10]); 661 nM in assay [6] (setting [11]); 114 nM in assay [6] (setting [12]). The EC50 in assay [6] (setting [13]) worked out at 114 nM. The IC50 worked out at 132 nM in assay [2], 7.7 nM in assay [4] and 2220 nM in assay [5]. In addition, the “C316Y/1a Fold Resistance” value in assay [3] was 286 fold.

Values taken from patent US20160355530A1, “HEPATITIS C INHIBITORS AND USES THEREOF” (AbbVie Inc., priority 2010, published 2016).
